Source: article PMC10808794, “Snakebite drug discovery: high-throughput screening to identify novel snake venom metalloproteinase toxin inhibitors” (Frontiers in Pharmacology, 2024)
Values after ≈ are worked out from the molar mass of the structure shown. Values joined by “and” are separate entries in the source; they are usually repeats but may differ in a detail not shown here. Equal entries are not always repeated. Structures can show the parent of a compound that is named as a salt. Where two headings read alike, the source gives them in different places.

Assays:
[1] = set-up: method as in Williams et al., 2011b; conditions: ref Williams et al., 2011b; cited from earlier work
5-HT2A = tested on: 5-HT2A; set-up: method as in MedChemExpress; conditions: IP accumulation assays; ref MedChemExpress; read-out: IC50, 5-HT2A inverse agonist; cited from earlier work
5-HT2C = tested on: 5-HT2C; set-up: method as in MedChemExpress; conditions: IP accumulation assays; ref MedChemExpress; read-out: IC50, 5-HT2C partial inverse agonist; cited from earlier work
5-HT2B = tested on: 5-HT2B; set-up: method as in MedChemExpress; conditions: IP accumulation assays; ref MedChemExpress; read-out: IC50, 5-HT2B inverse agonist; cited from earlier work
[2] = set-up: method as in MedChemExpress; conditions: ref MedChemExpress; cited from earlier work
[3] = tested on: SVMP activity of Echis ocellatus venom; experiment: SVMP fluorogenic substrate assay, E. ocellatus venom; assay type: biochemical; conditions: for EC50: E. ocellatus venom, 20-min endpoint, N/A = did not cross 50% inhibition at any dose, read-out: EC50, known inhibitors validation screen; for activity at the top dose tested: top 10 µM dose, negative control drugs
Method: (§1) Daughter plates and assay-ready plates were stored at −20°C, with the latter used within a month of creation. For SVMP assay-ready plates, 0.91 µL of each drug from the respective daughter plate was plated, such that in the final assay volume of 91 μL, a final concentration of 10 µM was reached. […] In secondary screening, dose response curves were created, with a top final assay concentration of 10 µM and reaching sub-nanomolar concentrations (concentration range was dependent on specific plate layout), with each concentration tested in duplicate.
(§2) The SVMP activity of crude venom in the presence of inhibitors or vehicle control (DMSO) was measured using a quenched fluorogenic substrate (substrate for MMPs, ADAMs and Cathepsins, Cat no: ES010, Bio-Techne). […] Reactions consisted of 1 µg of venom in 15 µL PBS co-incubated with 0.91 µL of inhibitor at a concentration of 1 mM. […] The plates were read on a CLARIOstar microplate reader (BMG Labtech), at an excitation wavelength of 320–10 nm and emission wavelength of 420–10 nm with 10 flashes per well at 25°C, at a pre-defined end read time. The end-read times were selected independently for each venom, as the plateau point for the venom + vehicle control (maximum fluorescence) identified in an initial 1-h kinetic read.
(§3) The SVMP activity for the end-read data was calculated for each test condition as a percentage of the mean of the venom + vehicle wells (100% activity), with a baseline of the marimastat 10 µM controls representing 0% activity (Supplementary Equation S1).

[4] = tested on: SVMP activity of Calloselasma rhodostoma venom; experiment: SVMP fluorogenic substrate assay, C. rhodostoma venom; assay type: biochemical; conditions: 20-min endpoint, read-out: EC50, known inhibitors validation screen
Method: as §1, §2, §3

[5] = tested on: SVMP activity of Bothrops jararaca venom; experiment: SVMP fluorogenic substrate assay, B. jararaca venom; assay type: biochemical; conditions: 30-min endpoint, read-out: EC50, known inhibitors validation screen
Method: as §1, §2, §3

[6] = tested on: SVMP activity of Bitis arietans venom; experiment: SVMP fluorogenic substrate assay, B. arietans venom; assay type: biochemical; conditions: 40-min endpoint, read-out: EC50, known inhibitors validation screen
Method: as §1, §2, §3

[7] = tested on: SVMP activity of five viper venoms; experiment: SVMP fluorogenic substrate assay, summary across the panel of five viper venoms; assay type: biochemical; conditions: for EC50: five venoms
Method: as §1, §2, §3

[8] = tested on: SVMP activity of Crotalus atrox venom; experiment: SVMP fluorogenic substrate assay, C. atrox venom; conditions: read-out: EC50, known inhibitors validation screen, 30-min endpoint
Method: as §1, §2, §3

patients [9] = tested on: patients; set-up: method as in Bissett et al., 2005; conditions: ref Bissett et al., 2005, cited from earlier work
patients [10] = tested on: patients; set-up: method as in Conatus Pharmaceuticals Inc, 2012; conditions: 30 mg per day for up to 24 weeks; ref Conatus Pharmaceuticals Inc, 2012; cited from earlier work
5 alpha Reductase = molecular target: 5 alpha Reductase; set-up: method as in MedChemExpress; conditions: benign prostatic hyperplasia, ref MedChemExpress, cited from earlier work
[11] = validation screen, read-out: EC50 range across all venoms, known inhibitors
[12] = validation screen, read-out: average EC50 across all venoms
[13] = read-out: EC50 against each of the venoms, secondary screen

SMILES: COCCOC(=O)N1CCN(S(=O)(=O)c2cc(F)c(Oc3ccc(Cl)cc3)c(F)c2)C(C(=O)NO)C1 (stereo not shown) [XL-784]
- aqueous solubility [1]: 20 µg/mL (≈ 36.4 µM)

SMILES: COc1ccc(NC(=O)Nc2ccc(F)cc2F)cc1-c1c(Br)cnn1C [Nelotanserin]
- IC50 (5-HT2A): 1.7 nM
- IC50 (5-HT2C): 79 nM
- IC50 (5-HT2B): 791 nM
- Solubility in DMSO [2]: ≥ 32 mg/mL and ≥ 73.19 mM

SMILES: O=S(=O)(O)CC(S)CS (stereo not shown) [DMPS, 2,3-dimercapto-1-propane-sulfonic acid sodium salt monohydrate]
- EC50 [3]: 959 nM
- EC50 [4]: 5280 nM
- EC50 [5]: 527 nM
- EC50 [6]: 1210 nM
- EC50 [7, 11]: 527 to 5280 nM
- EC50 [7, 12]: 2250 nM
- EC50 [8]: 3260 nM

SMILES: CCc1c(C(=O)C(N)=O)c2c(OCC(=O)O)cccc2n1Cc1ccccc1 [varespladib, 2-[[3-(2-Amino-2-oxoacetyl)-2-ethyl-1-(phenylmethyl)-1H-indol-4-yl]oxy]-acetic acid]
- activity at the top dose tested [3]: no activity

SMILES: OCCN1C[C@H](O)[C@@H](O)[C@H](O)[C@H]1CO [miglitol]
- EC50 [7, 13]: > 1000 nM

SMILES: C[C@]12C=CC(=O)N[C@@H]1CC[C@@H]1[C@@H]2CC[C@]2(C)[C@@H](C(=O)Nc3cc(C(F)(F)F)ccc3C(F)(F)F)CC[C@@H]12 [Dutasteride]
- Solubility in DMSO [2]: 63.06 mM (≈ 33.3 mg/mL)

SMILES: CNC(=O)[C@H](Cc1ccccc1)NC(=O)[C@H](CC(C)C)[C@H](CSc1cccs1)C(=O)NO [batimastat, (2R,3S)-N4-Hydroxy-N1-[(1S)-2-(methylamino)-2-oxo-1-(phenylmethyl)ethyl]-2-(2-methylpropyl)-3-[(2-thienylthio)methyl]butanediamide]
- EC50 [3]: 6.23 nM
- EC50 [4]: 42 nM
- EC50 [5]: 5.57 nM
- EC50 [6]: 2.49 nM
- EC50 [8]: 15.4 nM

SMILES: CS(=O)(=O)O.N=C(N)c1ccc2cc(OC(=O)c3ccc(N=C(N)N)cc3)ccc2c1 [nafamostat, (6-Carbamimidoylnaphthalen-2-yl)4-(diaminomethylideneamino)benzoate methanesulfonic acid]
- activity at the top dose tested [3]: no activity

SMILES: NS(=O)(=O)c1cc2c(cc1Cl)N=CNS2(=O)=O [chlorothiazide]
- EC50 [7, 13]: > 1000 nM

SMILES: CNC(=O)[C@@H](NC(=O)[C@H](CC(C)C)[C@H](O)C(=O)NO)C(C)(C)C [marimastat, (2S,3R)-N4-[(1S)-2,2-Dimethyl-1-[(methylamino)carbonyl]propyl]-N1,2-dihydroxy-3-(2-methylpropyl)butanediamide]
- EC50 [3]: 4.99 nM
- EC50 [4]: 27.7 nM
- EC50 [5]: 7.46 nM
- EC50 [6]: 2.36 nM
- EC50 [8]: 12 nM

SMILES: CC1(C)SCCN(S(=O)(=O)c2ccc(Oc3ccncc3)cc2)[C@H]1C(=O)NO [prinomastat, prinomastat hydrochloride]
- EC50 [3]: 4.35 nM
- EC50 [4]: 36.7 nM
- EC50 [5]: 9.53 nM
- EC50 [6]: 2.42 nM
- toxicity observed in Phase III trials (patients [9]; 15 mg bi-daily dosing for 3–36 months): musculoskeletal toxicity was observed in a significant proportion of patients
- thromboembolic risk in Phase III trials (patients [9]; cancer patients receiving combination chemotherapy): increased risk of venous thromboembolic disease
- EC50 [8]: 19.8 nM

SMILES: O=C(NO)C1(CS(=O)(=O)c2ccc(Oc3ccc(Cl)cc3)cc2)CCOCC1 [CTS-1027]
- adverse events in Phase II trials (patients [10]): a range of serious adverse events

SMILES: S=C(N/N=C1\CCCc2cccnc21)N1CCN(c2ccccn2)CC1 [COTI-2]
- fold superiority of EC50 to dimercaprol ([7]; across all venoms, secondary screen): > 2 fold
- EC50 ([7]; read-out: EC50 range across all venoms, secondary screen): 185 to 640 nM

SMILES: Cn1c(=O)cc(N2CCC[C@@H](N)C2)n(Cc2cc(F)ccc2C#N)c1=O [trelagliptin (succinate), trelagliptin]
- EC50 [7, 13]: > 1000 nM

SMILES: CC(C)(C)NC(=O)[C@H]1CC[C@H]2[C@@H]3CC[C@H]4NC(=O)C=C[C@]4(C)[C@H]3CC[C@]12C [Finasteride]
- Ki (5 alpha Reductase; epithelium, read-out: Ki, 5alpha-reductase activity in epithelium): 10 nM
- Ki (5 alpha Reductase; stroma, read-out: Ki, 5alpha-reductase activity in stroma): 33 nM
- Solubility in DMSO [2]: 150 mg/mL and 402.64 mM

SMILES: OCC(S)CS (stereo not shown) [dimercaprol, 2,3-dimercapto-1-propanol]
- EC50 [3]: 1120 nM and 1130 nM
- EC50 [4]: 6860 nM
- EC50 [5]: 558 nM
- EC50 [6]: 2290 nM
- EC50 [7, 11]: 558 to 6860 nM
- EC50 [7, 12]: 3140 nM
- EC50 [8]: 4890 nM

SMILES: O=C(/C=C/c1cccc(S(=O)(=O)Nc2ccccc2)c1)NO [belinostat]
- EC50 [7, 13]: > 1000 nM
